Data as given in ChEMBL document CHEMBL4725491, “Staurosporine Analogs Via C-H Borylation” (ACS Med Chem Lett, 2020).

Tests used:
[1] = Cytotoxicity against human HMLE cells assessed as reduction in cell metabolic activity after 72 hrs by MTS assay; type: ADME, cell-based
MDA-MB-231 = test: Cytotoxicity against human MDA-MB-231 cells assessed as reduction in cell metabolic activity after 72 hrs by MTS assay; type: functional, cell-based; details: MDA-MB-231, 72 h

Row | SMILES | IC50 [1] | IC50 (MDA-MB-231)
1 | CN[C@@H]1C[C@H]2O[C@@](C)([C@@H]1OC)n1c3cc(O)ccc3c3c4c(c5c6ccccc6n2c5c31)C(=O)NC4 | 58.7 nM | 3.4 nM
2 | CN[C@@H]1C[C@H]2O[C@@](C)([C@@H]1OC)n1c3ccc(O)cc3c3c4c(c5c6ccccc6n2c5c31)C(=O)NC4 | 27.5 nM | 2 nM
3 | CN[C@@H]1C[C@H]2O[C@@](C)([C@@H]1OC)n1c3ccccc3c3c4c(c5c6ccccc6n2c5c31)C(=O)NC4 [STAUROSPORINE] | – | 2.5 nM
